Experimental data published in PubChem BioAssay (NCI).
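Cultured in 96-well plates, cells were exposed to test compound for 48 hours across five concentrations. The concentration for 50% growth inhibition is given as GI50. TGI marks complete inhibition of growth.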

Tests used:
Assay in all cases: NCI anticancer screen, dose series, 48 h
[1] = test system: SF-295 CNS
[2] = test system: SK-MEL-28 melanoma
[3] = test system: SR leukemia
[4] = test system: SK-OV-3 ovarian
[5] = test system: MALME-3M melanoma
[6] = test system: CCRF-CEM leukemia
[7] = test system: MCF7 breast
[8] = test system: MDA-MB-231 breast
[9] = test system: T-47D breast
[10] = test system: MDA-MB-435

SMILES: O=C(c1ccc(Cl)cc1)N(C(=S)N1CCN(c2ccccn2)CC1)C1CCCCC1
- TGI [1]: > 100 µM
- TGI [2]: > 100 µM
- TGI [3]: > 100 µM
- TGI [4]: > 100 µM
- TGI [5]: > 100 µM
- TGI [6]: > 100 µM

SMILES: COc1ccccc1NC(=O)CC(=O)N1N=C(N2c3ccccc3Sc3ccccc32)CC1c1ccccc1 (stereo not drawn)
- TGI [1]: > 100 µM
- TGI [2]: > 100 µM
- TGI [3]: > 100 µM
- TGI [4]: > 100 µM
- TGI [7]: > 100 µM
- TGI [8]: > 100 µM
- TGI [9]: > 100 µM
- TGI [6]: > 100 µM
- TGI [10]: > 100 µM

SMILES: CCCCCCCCCCCCCCCCOP(=O)(O)OCC(N)C(=O)O (stereo not drawn)
- TGI [1]: 31.3 µM
- TGI [2]: > 100 µM
- TGI [3]: 61.4 µM
- TGI [4]: 63.8 µM
- TGI [5]: > 100 µM
- TGI [8]: 47.4 µM
- TGI [9]: > 100 µM
- TGI [6]: 65 µM
- TGI [10]: 39.8 µM

SMILES: O=C(c1ccccc1)C1S(=O)(=O)OCCOS1(=O)=O
- TGI [1]: > 100 µM
- TGI [2]: > 100 µM
- TGI [3]: > 100 µM
- TGI [4]: > 100 µM
- TGI [5]: > 100 µM
- TGI [6]: > 100 µM

SMILES: O=c1ccn(C2OC(CO)C(O)C2F)c(=O)n1Cc1ccccc1 (stereo not drawn)
- TGI [1]: > 100 µM
- TGI [2]: > 100 µM
- TGI [3]: > 100 µM
- TGI [7]: > 100 µM
- TGI [5]: > 100 µM
- TGI [8]: > 100 µM
- TGI [9]: > 100 µM
- TGI [6]: > 100 µM
- TGI [10]: > 100 µM

SMILES: CC(O)(P(=O)(O)O)P(=O)(O)OCC(O)CN1CCOCC1 (stereo not drawn)
- TGI [1]: > 100 µM
- TGI [2]: > 100 µM
- TGI [3]: > 100 µM
- TGI [4]: > 100 µM
- TGI [7]: > 100 µM
- TGI [5]: > 100 µM
- TGI [8]: > 100 µM
- TGI [6]: > 100 µM
- TGI [10]: > 100 µM

SMILES: C/C=C1\CN(C(=O)OC(C)(C)C)C1C(=O)OC(C)(C)C (stereo not drawn)
- TGI [1]: > 100 µM
- TGI [2]: > 100 µM
- TGI [3]: > 100 µM
- TGI [4]: > 100 µM
- TGI [7]: > 100 µM
- TGI [5]: > 100 µM
- TGI [6]: > 100 µM
- TGI [10]: > 100 µM

SMILES: O=C(O)c1cnc(-n2[nH]c3c(c2=O)CCCC3)[nH]c1=O
- TGI [1]: > 100 µM
- TGI [2]: > 100 µM
- TGI [3]: > 100 µM
- TGI [4]: > 100 µM
- TGI [5]: > 100 µM
- TGI [8]: > 100 µM
- TGI [9]: > 100 µM
- TGI [6]: > 100 µM
- TGI [10]: > 100 µM

SMILES: CCOC(=O)/C(=C/c1ccc(C(=O)OC)cc1)N(CC)CC
- TGI [2]: > 100 µM
- TGI [3]: > 100 µM
- TGI [4]: > 100 µM
- TGI [5]: > 100 µM
- TGI [6]: 93.7 µM

SMILES: O=C(N/N=C\c1ccc(N(CCCl)CCCl)cc1[N+](=O)[O-])c1cccnc1
- GI50 [1]: > 100 µM
- TGI [1]: > 100 µM
- GI50 [2]: > 100 µM
- TGI [2]: > 100 µM
- GI50 [3]: > 100 µM
- TGI [3]: > 100 µM
- GI50 [7]: > 100 µM
- TGI [7]: > 100 µM
- GI50 [5]: > 100 µM
- TGI [5]: > 100 µM
- GI50 [8]: > 100 µM
- TGI [8]: > 100 µM
- GI50 [9]: > 100 µM
- TGI [9]: > 100 µM
- GI50 [6]: > 100 µM
- TGI [6]: > 100 µM
- GI50 [10]: > 100 µM
- TGI [10]: > 100 µM

SMILES: Clc1cccc(NN=Nc2ccc(-c3nc4ccccc4s3)cc2)c1
- TGI [1]: > 100 µM
- TGI [2]: > 100 µM
- TGI [3]: 43 µM
- TGI [4]: > 100 µM
- TGI [7]: > 100 µM
- TGI [5]: 88.2 µM
- TGI [9]: > 100 µM
- TGI [6]: 37.7 µM
- TGI [10]: > 100 µM

SMILES: CCN(CC)CCN1C(=O)c2c(c3c4ccccc4[nH]c3c3ccc4ccccc4c23)C1=O
- GI50 [1]: 0.722 µM
- TGI [1]: 2.03 µM
- GI50 [2]: 1.74 µM
- TGI [2]: 3.18 µM
- GI50 [4]: 1.57 µM
- TGI [4]: 3.01 µM
- GI50 [7]: 0.0836 µM
- TGI [7]: 1.96 µM
- GI50 [5]: 1.79 µM
- TGI [5]: 3.46 µM
- GI50 [9]: 13 µM
- TGI [9]: 38.9 µM
- GI50 [10]: 1.77 µM
- TGI [10]: 3.17 µM

SMILES: C=C1C(O)C[C@H](OC(C)=O)[C@]2(C)C1C(OC(C)=O)[C@]1(C(C)(C)O)CC(O)C(C)=C1[C@@H](OC(=O)c1ccccc1)C2OC(C)=O (stereo partly drawn)
- TGI [1]: > 10 µM
- TGI [2]: > 10 µM
- TGI [3]: > 10 µM
- TGI [4]: > 10 µM
- TGI [7]: > 10 µM
- TGI [8]: > 10 µM
- TGI [9]: > 10 µM
- TGI [6]: > 10 µM
- TGI [10]: > 10 µM

SMILES: Cc1oc2c(c1C)S(=O)(=O)C(C#N)=C(N(C)C)N2
- TGI [1]: > 100 µM
- TGI [2]: > 100 µM
- TGI [4]: > 100 µM
- TGI [7]: > 100 µM
- TGI [5]: > 100 µM
- TGI [8]: > 100 µM
- TGI [9]: > 100 µM
- TGI [10]: > 100 µM

SMILES: CC(=O)Oc1c(N2CCCCC2)c(C(=O)c2ccccc2)c(O)c2ccn(N(C)C)c12
- TGI [1]: 42.4 µM
- TGI [2]: 34.8 µM
- TGI [4]: 65.4 µM
- TGI [7]: 30.6 µM
- TGI [5]: 31.8 µM
- TGI [8]: 30.6 µM
- TGI [6]: 76.1 µM
- TGI [10]: 38.1 µM

SMILES: O=C1C(Cl)=C(N(C(=O)c2ccccc2)C(=O)c2ccccc2)C(=O)c2ccccc21
- TGI [1]: > 100 µM
- TGI [2]: 40.2 µM
- TGI [3]: 81.2 µM
- TGI [4]: > 100 µM
- TGI [7]: 24 µM
- TGI [8]: > 100 µM
- TGI [9]: 32.3 µM
- TGI [6]: 18.6 µM
- TGI [10]: 32.4 µM

SMILES: Cn1ncc2c(Cl)ncnc21
- TGI [1]: > 100 µM
- TGI [2]: > 100 µM
- TGI [3]: > 100 µM
- TGI [4]: > 100 µM
- TGI [7]: > 100 µM
- TGI [9]: > 100 µM
- TGI [10]: > 100 µM

SMILES: CC(=O)Oc1ccc2c(c1)CC[C@@H]1C2[C@@H](O[N+](=O)[O-])C[C@@]2(C)C1CC[C@@H]2O[N+](=O)[O-] (stereo partly drawn)
- TGI [1]: 23.7 µM
- TGI [2]: 28.7 µM
- TGI [3]: 27.7 µM
- TGI [7]: 22.4 µM
- TGI [5]: 28.8 µM
- TGI [9]: 26.8 µM
- TGI [6]: 38.8 µM
- TGI [10]: 33.5 µM

SMILES: COc1cc(OC)c2c3c(OC)cc(OC)c4c(=O)c(O)c(C[C@@H](C)O)c(c5c(C[C@@H](C)O)c(O)c(=O)c1c25)c43
- TGI [1]: > 100 µM
- TGI [2]: 42 µM
- TGI [4]: > 100 µM
- TGI [7]: 48.6 µM
- TGI [8]: 25.3 µM
- TGI [9]: 44.5 µM
- TGI [10]: 32.1 µM

SMILES: CCOC(=O)Nc1ccc2c(c1)c(CCCCCCc1nc3ccccc3c3ccc(NC(=O)OCC)cc13)nc1ccccc12
- TGI [1]: > 100 µM
- TGI [2]: > 100 µM
- TGI [3]: > 100 µM
- TGI [4]: 85.1 µM
- TGI [7]: > 100 µM
- TGI [8]: 67.8 µM
- TGI [9]: > 100 µM
- TGI [6]: > 100 µM
- TGI [10]: > 100 µM

SMILES: CCOC(=O)NC(OC)(C(F)(F)F)C(F)(F)F
- TGI [1]: > 100 µM
- TGI [2]: > 100 µM
- TGI [3]: > 100 µM
- TGI [4]: > 100 µM
- TGI [7]: > 100 µM
- TGI [5]: > 100 µM
- TGI [8]: > 100 µM
- TGI [6]: > 100 µM
- TGI [10]: > 100 µM

SMILES: COc1ccc(C2C(C#N)=C(S)N(C3OC(COC(C)=O)C(OC(C)=O)C(OC(C)=O)C3OC(C)=O)C(c3ccccc3)=C2C(C)=O)cc1 (stereo not drawn)
- TGI [1]: > 100 µM
- TGI [2]: > 100 µM
- TGI [7]: > 100 µM
- TGI [5]: > 100 µM
- TGI [8]: > 100 µM
- TGI [9]: 80.1 µM
- TGI [6]: > 100 µM
- TGI [10]: > 100 µM
